Assays:
isolated rat hearts = assay: isolated heart model of ischemia and reperfusion; conditions: 5 mM, added 10 minutes prior to ischemia and in reperfusion buffer; 10 min global ischemia, 15 min reperfusion; n=3
Procedure: To determine whether glucosamine treatment was protective in an isolated heart model of ischemia and reperfusion, isolated rat hearts (n=3) were assessed for protection against damage utilizing an ischemia/reperfusion protocol that included 10 minutes of global ischemia followed by 15 minutes of reperfusion with oxygenated buffer. In the experimental group, 5 mM glucosamine was added to the buffer 10 minutes prior to the onset of ischemia and was also included in the reperfusion buffer.

[1] = test system: rat model of trauma-hemorrhage and resuscitation; assay: soft tissue trauma-hemorrhage (T-H) and resuscitation, Example 1 (glucosamine before hemorrhage and during resuscitation); format: in vivo
Procedure: (§1) The following experiments were conducted using a model of soft tissue trauma-hemorrhage (T-H) as described in Ba, et al., Crit. Care Med (2000) 28(8):2837-2842; Chaudry, et al., Can J Physiol Pharmacol (1975) 53(5):859-865; Ma, et al., Am J Physiol Gastrointest Liver Physiol (2003) 284(1):G107-G115; and Harkema and Chaudry, Crit. Care Med (1992) 20(2):263-275. Male rats were fasted for 16 h and divided into three groups: (1) sham (trauma only); (2) T-H (trauma with subsequent hemorrhage and resuscitation); and (3) G-T-H (trauma with subsequent hemorrhage and resuscitation in the presence of glucosamine). All groups underwent a 5 cm ventral midline laparotomy to induce soft-tissue trauma and were cannulated in both femoral arteries and the right femoral vein. The T-H and G-T-H groups received an infusion of 3 mls over 30 minutes of Ringer's lactate (RL) containing, in the G-T-H group only, 10 mM glucosamine. These two groups were then bled to a mean arterial pressure of 40 mm Hg within 10 minutes and maintained at that pressure for 80 minutes. The T-H group was then infused with 1 ml RL over 10 minutes, while in the G-T-H group the infusate contained an iso-osmotic solution of 75 mM glucosamine (pH 7.4) in 50% RL. The two groups were then resuscitated with four times the maximum hemorrhage volume over a period of 60 minutes with RL (T-H) or RL containing 10 mM glucosamine (G-T-H). Sham-operated animals underwent the same surgical procedure but were neither bled nor resuscitated. Two hours post-resuscitation, a catheter was inserted into the left ventricle via the right carotid artery. Organ blood flows were determined using radioactive microspheres. Cardiac function and blood parameters were also assessed. The data for these experiments are shown in Tables 1 and 2 (values are mean ±standard error of the mean).

UDP-GlcNAc = UDP-GlcNAc pools in isolated hearts; conditions: 5 mM
Procedure: In the experiments above with isolated hearts, glucosamine was protective after only a ten minute pre-incubation. While not wishing to be bound by theory, the mechanism believed to be responsible for the protection is an increase in concentration of an intracellular metabolite of the HBP, which results in an increase in protein-associated O-GlcNAc. […] Increases at ten minutes were 47%. With respect to the second point, experiments were performed in which a monoclonal antibody specific for O-GlcNAc on proteins (CTD110) (Corner, et al, Anal Biochem (2001) 293(2):169-177) was used in an immunoblotting protocol. The specificity of this antibody for O-GlcNAc-containing epitopes is verified in each experiment by the inclusion of 10 mM GlcNAc along with the CTD110 antibody on parallel samples. These samples show no staining (data not shown). CTD110 immunoblots were performed on extracts from isolated hearts following a ten-minute perfusion with buffer or buffer containing 5 mM glucosamine (FIG. 8). […] Intriguingly, one group of newly appearing proteins has molecular masses near 70 kDa and another around 90 kDa. […] Another family of heat shock proteins, HSP-90, has a molecular mass near 90 kDa (Nollen and Morimoto, J Cell Sci (2002) 115(Pt 14):2809-2816). Thus, O-GlcNAc bearing proteins appear to be responsible for the protection.

[2] = test system: rat model of trauma-hemorrhage and resuscitation; assay: trauma/hemorrhage mimicking the field, Example 2 (glucosamine only during resuscitation); format: in vivo
Procedure: as §1
A second experiment was performed in order to mimic a trauma/hemorrhage in the field. There were no treatments in any of the three groups prior to trauma/hemorrhage. The T-H and G-T-H groups were partially resuscitated identically with two times the maximum hemorrhage volume over a period of 30 minutes. In the G-T-H group, a 1 ml bolus containing an iso-osmotic solution of 75 mM glucosamine (pH 7.4) in 50% RL was administered, while in the T-H group this bolus contained only RL. This was then followed with two times the maximum hemorrhage volume over a period of 30 minutes with RL (T-H) or RL containing 10 mM glucosamine (G-T-H). Sham-operated animals underwent the same surgical procedure but were neither bled nor resuscitated. The data for this experiment are shown in Tables 3 and 4 (values are mean ±standard error of the mean).

[3] = rat, G-T-H (n = 3), 2 h after T-H, glucosamine before hemorrhage and in resuscitation, mean ± SEM
[4] = rat, G-T-H, 2 h after T-H and resuscitation, Example 1, mean ± SEM
[5] = rat, G-T-H (n = 8), 2 h after T-H and resuscitation, Example 2, mean ± SEM
[6] = rat, G-T-H (n = 8), 2 h after T-H, glucosamine only during resuscitation, mean ± SEM

N[C@H]1C(O)O[C@H](CO)[C@@H](O)[C@@H]1O (stereo partly drawn) [glucosamine]
protection from ischemia/reperfusion as assessed by LVDP and EDP (isolated rat hearts): significant protection | Hepatic blood flow, change ([1]; G-T-H group, Example 1): improved | Total peripheral resistance, change ([1]; G-T-H group, Example 1): decreased | +dp/dt relative to the T-H group ([1]; G-T-H vs T-H group, Example 1): markedly improved | Cardiac output improvement over the T-H group ([1]; G-T-H vs T-H group, Example 1): more than two-fold | oxygen consumption relative to the T-H group ([1]; G-T-H vs T-H group, Example 1): more than doubled | oxygen delivery relative to the T-H group ([1]; G-T-H vs T-H group, Example 1): more than doubled | −dp/dt relative to the T-H group ([1]; G-T-H vs T-H group, Example 1): markedly improved | Cardiac output improvement over the sham group ([1]; G-T-H vs sham group, Example 1): more than 50% | +dp/dt [1, 3]: 14,400 ± 900 mm Hg/sec | Cardiac Output [1, 3]: 40.5 ± 0.4 ml/min 100 g body wt | Heart Rate [1, 3]: 371 ± 15 beat/minute | Mean Arterial Pressure [1, 3]: 104 ± 3 mm Hg | Oxygen Consumption [1, 3]: 1.32 ± 0.15 ml/min 100 g body wt | Oxygen Delivery [1, 3]: 3.3 ± 0.1 ml/min 100 g body wt | Oxygen Extraction [1, 3]: 42.0 ± 5.4% | Stroke volume [1, 3]: 109.7 ± 5.7 μl/beat/100 g body wt | Total Peripheral Resistance [1, 3]: 2.58 ± 0.10 mm Hg/ml/min/100 g body wt | −dp/dt [1, 3]: 8,700 ± 600 mm Hg/sec | Regional Blood Flow: Brain [1, 4]: 103 ± 11 ml/min/100 g tissue | Regional Blood Flow: Cardiac [1, 4]: 1,320 ± 170 ml/min/100 g tissue | Regional Blood Flow: Cecum [1, 4]: 118 ± 29 ml/min/100 g tissue | Regional Blood Flow: Gastric [1, 4]: 78.3 ± 5.1 ml/min/100 g tissue | Regional Blood Flow: Hepatic Artery [1, 4]: 18.5 ± 6.0 ml/min/100 g tissue | Regional Blood Flow: Large Intestine [1, 4]: 101 ± 18 ml/min/100 g tissue | Regional Blood Flow: Lung [1, 4]: 74.2 ± 18.1 ml/min/100 g tissue | Regional Blood Flow: Mesenteric [1, 4]: 29.2 ± 5.0 ml/min/100 g tissue | Regional Blood Flow: Muscle [1, 4]: 6.45 ± 1.69 ml/min/100 g tissue | Regional Blood Flow: Pancreatic [1, 4]: 56 ± 4 ml/min/100 g tissue | Regional Blood Flow: Portal Vein [1, 4]: 187 ± 14 ml/min/100 g tissue | Regional Blood Flow: Renal [1, 4]: 374 ± 13 ml/min/100 g tissue | Regional Blood Flow: Skin [1, 4]: 53.9 ± 5.7 ml/min/100 g tissue | Regional Blood Flow: Small Intestine [1, 4]: 240 ± 24 ml/min/100 g tissue | Regional Blood Flow: Splenic [1, 4]: 46 ± 20 ml/min/100 g tissue | Regional Blood Flow: Thymus [1, 4]: 47.8 ± 10.5 ml/min/100 g tissue | Regional Blood Flow: Total Hepatic [1, 4]: 202 ± 20 ml/min/100 g tissue | increase in UDP-GlcNAc pools (UDP-GlcNAc; 30 minute incubation): about 75% | increase in UDP-GlcNAc pools (UDP-GlcNAc; ten minutes): 47% | protection in trauma/hemorrhage ([2]; glucosamine only during resuscitation, Example 2): remarkably protective | Regional Blood Flow: Brain [2, 5]: 151.58 ± 13.97 ml/min/100 g tissue | Regional Blood Flow: Cardiac [2, 5]: 933.65 ± 114.73 ml/min/100 g tissue | Regional Blood Flow: Cecum [2, 5]: 86.39 ± 10.70 ml/min/100 g tissue | Regional Blood Flow: Gastric [2, 5]: 71.08 ± 6.84 ml/min/100 g tissue | Regional Blood Flow: Hepatic Artery [2, 5]: 45.10 ± 6.58 ml/min/100 g tissue | Regional Blood Flow: Large Intestine [2, 5]: 96.83 ± 6.90 ml/min/100 g tissue | Regional Blood Flow: Lung [2, 5]: 29.71 ± 4.87 ml/min/100 g tissue | Regional Blood Flow: Mesenteric [2, 5]: 43.12 ± 9.56 ml/min/100 g tissue | Regional Blood Flow: Muscle [2, 5]: 32.97 ± 5.00 ml/min/100 g tissue | Regional Blood Flow: Pancreatic [2, 5]: 52.08 ± 5.53 ml/min/100 g tissue | Regional Blood Flow: Portal Vein [2, 5]: 211.57 ± 23.79 ml/min/100 g tissue | Regional Blood Flow: Renal [2, 5]: 472.07 ± 49.40 ml/min/100 g tissue | Regional Blood Flow: Skin [2, 5]: 11.65 ± 1.25 ml/min/100 g tissue | Regional Blood Flow: Small Intestine [2, 5]: 233.60 ± 27.07 ml/min/100 g tissue | Regional Blood Flow: Splenic [2, 5]: 54.77 ± 4.44 ml/min/100 g tissue | Regional Blood Flow: Thymus [2, 5]: 40.70 ± 4.96 ml/min/100 g tissue | Regional Blood Flow: Total Hepatic [2, 5]: 256.67 ± 27.12 ml/min/100 g tissue | +dp/dt [2, 6]: 13656 ± 7786 mm Hg/sec | Cardiac Output [2, 6]: 33.49 ± 2.12 ml/min 100 g body wt | Heart Rate [2, 6]: 394.50 ± 13.13 beat/minute | Mean Arterial Pressure [2, 6]: 97.88 ± 4.19 mm Hg | Oxygen Consumption [2, 6]: 0.93 ± 0.23 ml/min 100 g body wt | Oxygen Delivery [2, 6]: 2.52 ± 0.17 ml/min 100 g body wt | Oxygen Extraction [2, 6]: 34.48 ± 7.45% | Stroke volume [2, 6]: 84.95 ± 4.66 μl/beat/100 g body wt | Total Peripheral Resistance [2, 6]: 3.05 ± 0.31 mm Hg/ml/min/100 g body wt | −dp/dt [2, 6]: 8549 ± 549 mm Hg/sec
